According to US10450297B2, “Sulfonyl amide derivatives for the treatment of abnormal cell growth” (Pfizer, Inc., priority 2007, dated 2019):

Molecular target: FAK kinase (catalytic construct FAK(410-689)) (Homo sapiens (Human), UniProt Q05397)
Test: FAKcd kinase ELISA (inhibition of poly-glu-tyr phosphorylation by FAK(410-689))
Format: biochemical
Details: 50 μM final ATP

FAK kinase (catalytic construct FAK(410-689)), sequence (Q05397 410-689): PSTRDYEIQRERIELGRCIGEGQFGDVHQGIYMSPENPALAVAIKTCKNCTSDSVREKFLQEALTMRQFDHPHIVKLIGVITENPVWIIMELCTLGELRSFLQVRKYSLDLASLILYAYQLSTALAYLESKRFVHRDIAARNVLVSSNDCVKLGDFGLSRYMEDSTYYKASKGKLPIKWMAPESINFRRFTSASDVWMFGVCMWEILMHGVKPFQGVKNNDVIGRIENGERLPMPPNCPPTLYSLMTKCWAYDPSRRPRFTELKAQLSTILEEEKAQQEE

| SMILES | IC50 [nM] |
| --- | --- |
| COc1ccc(C(N)=O)cc1Nc1ncc(C(F)(F)F)c(NCc2ncccc2N(C)S(C)(=O)=O)n1 [Compound 306, 4-methoxy-3-({4-[({3-[methyl(methylsulfonyl)amino]pyridin-2-yl}methyl)amino]-5-(trifluoromethyl)pyrimidin-2-yl}amino)benzamide] | 0.696 |
| COc1ccc(C(N)=O)cc1Nc1ncc(C(F)(F)F)c(NCc2nccnc2N(C)S(C)(=O)=O)n1 [Compound 307, 4-methoxy-3-({4-[({3-[methyl(methylsulfonyl)amino)pyrazin-2-yl}methyl)amino]-5-(trifluoromethyl)pyrimidin-2-yl}amino)benzamide] | 1.11 |
| Cc1ccc(C(N)=O)cc1Nc1ncc(C(F)(F)F)c(NCc2nccnc2N(C)S(C)(=O)=O)n1 [Compound 309, 4-methyl-3-({4-[({3-[methyl(methylsulfonyl)amino]pyrazin-2-yl}methyl)amino]-5-(trifluoromethyl)pyrimidin-2-yl}amino)benzamide] | 3.51 |
| CC(=O)c1ccc(Nc2ncc(C(F)(F)F)c(NCc3cccnc3N(C)S(C)(=O)=O)n2)cc1 [Compound 311, N-{3-[({2-[(4-acetylphenyl)amino]-5-(trifluoromethyl)pyrimidin-4-yl}amino)methyl]pyridin-2-yl}-N-methylmethane-sulfonamide] | 1 |
| CC(=O)c1cccc(Nc2ncc(C(F)(F)F)c(NCc3cccnc3N(C)S(C)(=O)=O)n2)c1 [Compound 312, N-{3-[({2-[(3-acetylphenyl)amino]-5-(trifluoromethyl)pyrimidin-4-yl}amino)methyl]pyridin-2-yl}-N-methylmethane-sulfonamide] | 1.26 |
| CN(c1ncccc1CNc1nc(Nc2ccc(-c3nnn[nH]3)cc2)ncc1C(F)(F)F)S(C)(=O)=O [Compound 314, N-methyl-N-[3-({[2-{[4-(1H-tetrazol-5-yl)phenyl]amino}-5-(trifluoromethyl)pyrimidin-4-yl]amino}methyl)pyridin-2-yl]methanesulfonamide] | < 0.595 |
| COC(=O)c1ccc(Nc2ncc(C(F)(F)F)c(NCc3cccc(N(C(F)F)S(C)(=O)=O)c3)n2)cc1 [Compound 321, 4-{[4-({3-[(difluoromethyl)(methyl-sulfonyl)amino]benzyl}amino)-5-(trifluoromethyl)pyrimidin-2-yl]amino}benzoate] | 119 |
| CN(c1ncccc1CNc1nc(Nc2ccc(C(C)(C)O)cc2)ncc1C(F)(F)F)S(C)(=O)=O [Compound 323, N-[3-({[2-{[4-(1-hydroxy-1-methylethyl)phenyl]amino}-5-(trifluoromethyl)pyrimidin-4-yl]amino}methyl)pyridin-2-yl]-N-methylmethane-sulfonamide] | 1.5 |
| CN(c1cccnc1CNc1nc(Nc2ccc(C(C)(C)O)cc2)ncc1C(F)(F)F)S(C)(=O)=O [Compound 325, N-[2-({[2-{[4-(1-hydroxy-1-methylethyl)phenyl]amino}-5-(trifluoromethyl)pyrimidin-4-yl)amino}methyl)pyridin-3-yl]-N-methylmethane-sulfonamide] | 2.66 |
| CN(c1nccnc1CNc1nc(Nc2ccc(C(C)(C)O)cc2)ncc1C(F)(F)F)S(C)(=O)=O [Compound 326, N-[3-({[2-{(4-(1-hydroxy-1-methylethyl)phenyl]amino}-5-(trifluoromethyl)pyrimidin-4-yl]amino}methyl)pyrazin-2-yl]-N-methylmethane-sulfonamide] | 1.62 |
| CN(c1nccnc1CNc1nc(Nc2ccc(C(N)=O)c(F)c2)ncc1C(F)(F)F)S(C)(=O)=O [Compound 327, 2-fluoro-4-({4-[({3-[methyl(methylsulfonyl)amino]pyrazin-2-yl}methyl)amino]-5-(trifluoromethyl)pyrimidin-2-yl}amino)benzamide] | 1.69 |
| CC(O)c1ccc(Nc2ncc(C(F)(F)F)c(NCc3cccc(N(C)S(C)(=O)=O)c3)n2)cc1 (stereo not shown) [Compound 328, N-[3-({[2-{[4-(1-hydroxyethyl)phenyl]amino}-5-(trifluoromethyl)pyrimidin-4-yl]amino}methyl)phenyl]-N-methylmethanesulfonamide] | 0.619 |

Results, then the molecule that gave them:

| IC50 [nM] | SMILES |
| --- | --- |
| 0.914 | CC(O)c1ccc(Nc2ncc(C(F)(F)F)c(NCc3ncccc3N(C)S(C)(=O)=O)n2)cc1 (stereo not shown) [Compound 329, N-[2-({[2-{[4-(1-hydroxyethyl)phenyl}amino}-5-(trifluoromethyl)pyrimidin-4-yl]amino}methyl)pyridin-3-yl)-N-methylmethane-sulfonamide] |
| 0.75 | CC(O)c1ccc(Nc2ncc(C(F)(F)F)c(NCc3nccnc3N(C)S(C)(=O)=O)n2)cc1 (stereo not shown) [Compound 330, N-[3-({[2-{[4-(1-hydroxyethyl)phenyl]amino}-5-(trifluoromethyl)pyrimidin-4-yl]amino}methyl)pyrazin-2-yl]-N-methylmethane-sulfonamide] |
| 1.77 | CN(c1cccnc1CNc1nc(Nc2ccc(C(N)=O)c(F)c2)ncc1C(F)(F)F)S(C)(=O)=O [Compound 331, 2-fluoro-4-({4-[({3-[methyl(methylsulfonyl)amino]pyridin-2-yl}methyl)amino]-5-(trifluoromethyl)pyrimidin-2-yl}amino)benzamide] |
| 0.863 | CN(c1cccnc1CNc1nc(Nc2ccc(C(N)=O)c(F)c2)ncc1C(F)(F)F)S(C)(=O)=O [Compound 332, 2-fluoro-4-({4-[({3-[methyl(methylsulfonyl)amino]pyridin-2-yl}methyl)amino]-5-(trifluoromethyl)pyrimidin-2-yl}amino)benzamide] |
| 2.14 | CN(c1cccc(CNc2nc(Nc3ccc(C(N)=O)c(F)c3)ncc2C(F)(F)F)c1)S(C)(=O)=O [Compound 333, 2-fluoro-4-{[4-({3-[methyl(methylsulfonyl)amino]benzyl}amino)-5-(trifluoromethyl)pyrimidin-2-yl]amino}benzamide] |
| < 0.595 | Cc1cc(Nc2ncc(C(F)(F)F)c(NCc3cccnc3N(C)S(C)(=O)=O)n2)ccc1C(N)=O [Compound 334, 2-methyl-4-({4-[({2-[methyl(methylsulfonyl)amino]pyridin-3-yl}methyl)amino]-5-(trifluoromethyl)pyrimidin-2-yl)amino)benzamide] |
| < 0.595 | Cc1cc(Nc2ncc(C(F)(F)F)c(NCc3ncccc3N(C)S(C)(=O)=O)n2)ccc1C(N)=O [Compound 336, 2-methyl-4-({4-[({3-[methyl(methylsulfonyl)amino]pyridin-2-yl}methyl)amino]-5-(trifluoromethyl)pyrimidin-2-yl)amino)benzamide] |
| < 0.595 | Cc1cc(Nc2ncc(C(F)(F)F)c(NCc3nccnc3N(C)S(C)(=O)=O)n2)ccc1C(N)=O [Compound 338, 2-methyl-4-({4-[({3-[methyl(methylsulfonyl)amino]pyrazin-2-yl}methyl)amino]-5-(trifluoromethyl)pyrimidin-2-yl}amino)benzamide] |
| < 0.595 | Cc1cc(Nc2ncc(C(F)(F)F)c(NCc3cccc(N(C)S(C)(=O)=O)c3)n2)ccc1C(N)=O [Compound 340, 2-methyl-4-{[4-({3-[methyl(methylsulfonyl)amino]benzyl}amino)-5-(trifluoromethyl)pyrimidin-2-yl]amino}benzamide] |
| < 0.595 | Cc1cc(C(N)=O)ccc1Nc1ncc(C(F)(F)F)c(NCc2cccnc2N(C)S(C)(=O)=O)n1 [Compound 341, 3-methyl-4-({4-[({2-[methyl(methylsulfonyl)amino]pyridin-3-yl}methyl)amino]-5-(trifluoromethyl)pyrimidin-2-yl}amino)benzamide] |
